In patent US8822467B2 (Ligand Pharmaceuticals Inc., priority 2009, dated 2014):
pIC50: −log10 of the molar value.

molecular target: T1, human CRTH2 (Homo sapiens, UniProt Q9Y5Y4); test: [35S]GTPγS binding assay (SPA) on membranes from CHO-K1 cells stably expressing human CRTH2, stimulated with 60 nM DHK-PGD2; assay type: biochemical; conditions: membranes of CHO-K1 cells expressing human CRTH2; 60 nM DHK-PGD2; Table 1; read-out: CRTH2 hGTPγS IC50
T1 construct: expressed in transfected cells
T1 sequence (Q9Y5Y4 1-395): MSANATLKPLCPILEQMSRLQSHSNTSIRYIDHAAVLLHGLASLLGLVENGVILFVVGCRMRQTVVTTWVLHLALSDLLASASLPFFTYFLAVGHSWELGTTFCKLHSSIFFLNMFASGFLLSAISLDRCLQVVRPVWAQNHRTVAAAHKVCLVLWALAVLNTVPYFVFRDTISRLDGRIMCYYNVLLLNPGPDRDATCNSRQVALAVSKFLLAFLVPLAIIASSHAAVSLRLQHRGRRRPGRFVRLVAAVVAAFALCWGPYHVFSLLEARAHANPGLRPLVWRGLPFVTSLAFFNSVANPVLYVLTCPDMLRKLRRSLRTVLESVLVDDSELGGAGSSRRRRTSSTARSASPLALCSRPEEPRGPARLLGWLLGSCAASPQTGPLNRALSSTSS
Protocol: [^35S]GTPγS Binding Assay
SPA [^35S]G-TPγS binding was performed on membranes from CHO-K1 cells stably expressing human CRTH2. To a white, clear-bottomed 384-well plate, 4 μg membrane protein was incubated in the binding buffer (20 mM HEPES, pH 7.4, 10 mM MgCl2, 300 mM NaCl, 0.2% BSA) with 60 nM DHK-PGD2, 500 pM [^35S]GTPγS, 10 μM GDP, and 100 μg wheat germ agglutinin-coupled SPA beads (GE Healthcare) with and without increasing concentrations of compounds. The final assay volume was 40 μL and contained 1% DMSO. Samples were incubated for 2 h at ambient temperature. Plates were centrifuged 5 min at 1500 rpm. Plates were read after an additional 4 h using the Trilux 1450 Microbeta (PerkinElmer) with a 30 sec/well reading time.

Structure (SMILES)	pIC50
CN(Cc1ccc(OCC(=O)O)c(-c2cc(F)cc(C#N)c2)c1)S(=O)(=O)c1ccc(F)cc1 [Example 64, 2-(3-cyano-5-fluorophenyl)-4-((4-fluoro-N-methylphenylsulfonamido)methyl)phenoxyacetic acid]	7.92
CN(Cc1ccc(OCC(=O)O)c(-c2cc(F)cc(F)c2)c1)S(=O)(=O)c1ccc(F)c(Cl)c1 [Example 67, 2-(3,5-difluorophenyl)-4-((3-chloro4-fluoro-N-methylphenylsulfonamido)methyl)phenoxyacetic acid]	7.89

same assay, conditions: potency class symbols; Table 2; read-out: CRTH2 hGTPγS IC50

Structure (SMILES)	pIC50
CN(Cc1ccc(OCC(=O)O)c(-c2cccc(S(C)(=O)=O)c2)c1)S(=O)(=O)c1ccc(F)cc1 [Example 60, 2-(3-methylsulfonylphenyl)-4-((4-fluoro-N-methylphenylsulfonamido)methyl)phenoxyacetic acid]	> 7.00
CN(Cc1ccc(OCC(=O)O)c(-c2cc(F)cc(C#N)c2)c1)S(=O)(=O)c1cccc(F)c1 [Example 61, 2-(3-cyano-5-fluorophenyl)-4-((3-fluoro-N-methylphenylsulfonamido)methyl)phenoxyacetic acid]	> 7.00
CN(Cc1ccc(OCC(=O)O)c(-c2cccc(C#N)c2)c1)S(=O)(=O)c1ccc(F)c(Cl)c1 [Example 62, 2-(3-cyanophenyl)-4-((3-chloro-4-fluoro-N-methylphenylsulfonamido)methyl)phenoxyacetic acid]	> 7.00
CN(Cc1ccc(OCC(=O)O)c(-c2cccc(C#N)c2)c1)S(=O)(=O)c1ccc(F)c(F)c1 [Example 63, 2-(3-cyanophenyl)-4-((3,4-difluoro-N-methylphenylsulfonamido)methyl)phenoxyacetic acid]	> 7.00
CN(Cc1ccc(OCC(=O)O)c(-c2cc(F)cc(C#N)c2)c1)S(=O)(=O)c1ccc(F)cc1 [Example 64, 2-(3-cyano-5-fluorophenyl)-4-((4-fluoro-N-methylphenylsulfonamido)methyl)phenoxyacetic acid]	> 7.00
CN(Cc1ccc(OCC(=O)O)c(-c2cccc(C#N)c2)c1)S(=O)(=O)c1ccc(Cl)c(F)c1 [Example 65, 2-(3-cyanophenyl)-4-((3-fluoro-4-chloro-N-methylphenylsulfonamido)methyl)phenoxyacetic acid]	> 7.00
Cc1cc(S(=O)(=O)N(C)Cc2ccc(OCC(=O)O)c(-c3cccc(C#N)c3)c2)ccc1F [Example 66, 2-(3-cyanophenyl)-4-((3-methyl-4-fluoro-N-methylphenylsulfonamido)methyl)phenoxyacetic acid]	> 7.00
CN(Cc1ccc(OCC(=O)O)c(-c2cc(F)cc(F)c2)c1)S(=O)(=O)c1ccc(F)c(Cl)c1 [Example 67, 2-(3,5-difluorophenyl)-4-((3-chloro4-fluoro-N-methylphenylsulfonamido)methyl)phenoxyacetic acid]	> 7.00
CN(Cc1ccc(OCC(=O)O)c(-c2cc(F)cc(F)c2)c1)S(=O)(=O)c1cccc(Cl)c1 [Example 68, 2-(3,5-difluorophenyl)-4-((3-chloro-N-methylphenylsulfonamido)methyl)phenoxyacetic acid]	> 7.00
COc1ccc(S(=O)(=O)N(C)Cc2ccc(OCC(=O)O)c(-c3cccc(S(C)(=O)=O)c3)c2)cc1 [Example 69, 2-(3-methylsulfonylphenyl)-4-((4-methoxy-N-methylphenylsulfonamido)methyl)phenoxyacetic acid]	> 7.00
CN(Cc1ccc(OCC(=O)O)c(-c2cccc(C#N)c2)c1)S(=O)(=O)c1cccc(Cl)c1 [Example 70, 2-(3-cyanophenyl)-4-((3-chloro-N-methylphenylsulfonamido)methyl)phenoxyacetic acid]	> 7.00
COc1ccc(S(=O)(=O)N(C)Cc2ccc(OCC(=O)O)c(-c3cccc(C#N)c3)c2)cc1F [Example 71, 2-(3-cyanophenyl)-4-((3-fluoro-4-methoxy-N-methylphenylsulfonamido)methyl)phenoxyacetic acid]	> 7.00
CN(Cc1ccc(OCC(=O)O)c(-c2cccc(S(C)(=O)=O)c2)c1)S(=O)(=O)c1cc(F)cc(F)c1 [Example 72, 2-(3-methylsulfonylphenyl)-4-((3,5-difluoro-N-methylphenylsulfonamido)methyl)phenoxyacetic acid]	> 7.00
CN(Cc1cc(-c2cccc(C#N)c2)c(OCC(=O)O)cc1Cl)S(=O)(=O)c1ccccc1 [Example 73, 2-(3-cyanophenyl)-4-((N-methylphenylsulfonamido)methyl)-5-chlorophenoxyacetic acid]	> 7.00
CN(Cc1ccc(OCC(=O)O)c(-c2cccc(C(F)(F)F)c2)c1)S(=O)(=O)c1ccc(F)c(Cl)c1 [Example 74, 2-(3-trifluoromethylphenyl)-4-((3-chloro-4-fluoro-N-methylphenylsulfonamido)methyl)phenoxyacetic acid]	> 7.00
CN(Cc1ccc(OCC(=O)O)c(-c2cncc(S(C)(=O)=O)c2)c1)S(=O)(=O)c1ccc(F)cc1 [Example 75, 2-(3-methylsulfonyl-5-pyridinyl)-4-((4-fluoro-N-methylphenylsulfonamido)methyl)phenoxyacetic acid]	> 7.00

Structure (SMILES)	pIC50
CN(Cc1ccc(OCC(=O)O)c(-c2cc(F)cc(C#N)c2)c1)S(=O)(=O)c1cc(F)cc(F)c1 [Example 76, 2-(3-cyano-5-fluorophenyl)-4-((3,5-difluoro-N-methylphenylsulfonamido)methyl)phenoxyacetic acid]	> 7.00
CN(Cc1cc(-c2cccc(C#N)c2)c(OCC(=O)O)cc1F)S(=O)(=O)c1ccc(F)cc1 [Example 77, 2-(3-cyanophenyl)-4-((4-fluoro-N-methylphenylsulfonamido)methyl)-5-fluorophenoxyacetic acid]	> 7.00
CN(Cc1ccc(OCC(=O)O)c(-c2cccc(S(C)(=O)=O)c2)c1)S(=O)(=O)c1ccccc1 [Example 78, 2-(3-methylsulfonylphenyl)-4-((N-methylphenylsulfonamido)methyl)phenoxyacetic acid]	> 7.00
CN(Cc1ccc(OCC(=O)O)c(-c2cc(F)cc(C(F)(F)F)c2)c1)S(=O)(=O)c1ccc(F)cc1 [Example 79, 2-(3-trifluoromethyl-5-fluorophenyl)-4-((4-fluoro-N-methylphenylsulfonamido)methyl)phenoxyacetic acid]	> 7.00
CN(Cc1ccc(OCC(=O)O)c(-c2cc(F)cc(C#N)c2)c1)S(=O)(=O)c1ccccc1 [Example 80, 2-(3-cyano-5-fluorophenyl)-4-((N-methylphenylsulfonamido)methyl)phenoxyacetic acid]	> 7.00
CS(=O)(=O)c1cccc(-c2cc(CNS(=O)(=O)c3ccc(F)cc3)ccc2OCC(=O)O)c1 [Example 81, 2-(3-methylsulfonylphenyl)-4-((4-fluorophenylsulfonamido)methyl)phenoxyacetic acid]	> 7.00
Cc1cc(S(=O)(=O)N(C)Cc2ccc(OCC(=O)O)c(-c3cc(F)cc(F)c3)c2)ccc1F [Example 82, 2-(3,5-difluorophenyl)-4-((3-methyl-4-fluoro-N-methylphenylsulfonamido)methyl)phenoxyacetic acid]	> 7.00
CCS(=O)(=O)c1cccc(-c2cc(CN(C)S(=O)(=O)c3ccc(F)cc3)ccc2OCC(=O)O)c1 [Example 83, 2-(3-ethylsulfonylphenyl)-4-((4-fluoro-N-methylphenylsulfonamido)methyl)phenoxyacetic acid]	> 7.00
Cc1ccc(-c2cc(CN(C)S(=O)(=O)c3ccc(F)cc3)ccc2OCC(=O)O)cc1S(C)(=O)=O [Example 84, 2-(3-methylsulfonyl-4-methyl-phenyl)-4-((4-fluoro-N-methylphenylsulfonamido)methyl)phenoxyacetic acid]	> 7.00
CN(C)S(=O)(=O)c1cccc(-c2cc(CN(C)S(=O)(=O)c3ccc(F)cc3)ccc2OCC(=O)O)c1 [Example 85, 2-(3-N,N-dimethylsulfamoylphenyl)-4-((4-fluoro-N-methylphenylsulfonamido)methyl)phenoxyacetic acid]	> 7.00
CN(Cc1ccc(OCC(=O)O)c(-c2cccc(S(C)(=O)=O)c2)c1)S(=O)(=O)c1ccc(C#N)cc1 [Example 86, 2-(3-methylsulfonylphenyl)-4-((4-cyano-N-methylphenylsulfonamido)methyl)phenoxyacetic acid]	> 7.00
CN(Cc1cc(-c2cccc(C#N)c2)c(OCC(=O)O)cc1F)S(=O)(=O)c1cccc(F)c1 [Example 87, 2-(3-cyanophenyl)-4-((3-fluoro-N-methylphenylsulfonamido)methyl)-5-fluorophenoxyacetic acid]	> 7.00
CN(Cc1ccc(OCC(=O)O)c(-c2cccc(S(C)(=O)=O)c2)c1)S(=O)(=O)c1cccc(C#N)c1 [Example 88, 2-(3-methylsulfonylphenyl)-4-((3-cyano-N-methylphenylsulfonamido)methyl)phenoxyacetic acid]	> 7.00
CN(Cc1ccc(OCC(=O)O)c(-c2cccc(C#N)c2)c1)S(=O)(=O)c1cccc(F)c1 [Example 89, 2-(3-cyanophenyl)-4-((3-fluoro-N-methylphenylsulfonamido)methyl)phenoxyacetic acid]	> 7.00
CN(Cc1ccc(OCC(=O)O)c(-c2cc(F)cc(F)c2)c1)S(=O)(=O)c1ccc(F)c(F)c1 [Example 90, 2-(3,5-difluorophenyl)-4-((3,4-difluoro-N-methylphenylsulfonamido)methyl)phenoxyacetic acid]	> 7.00
